Data reported in patent US20250136931A1, “AN IMPROVED CELL CULTURE PROCESS FOR PRODUCTION OF PROTEIN” (KASHIV BIOSCIENCES, LLC, priority 2022, published 2025).

What was measured:
[1] = system: host cells producing antibody; assay: Fed-batch bioreactor (Ambr250) cell culture for antibody production, control process spiked with MitoTempo; format: cell-based; details: total 25 nM, 5 nM each on day 3, 5, 7, 9, 11
Experimental: (§1) The cell bank vial is thawed in Shake flask 125 (SF125) into the seed media and cell counts are checked. The incubation is continued for 3-5 days during which cells reached the optimum cell density for subculture. The cells are subsequently expanded in Shake flask 500 (SF500) to generate sufficient inoculum for Ambr®250 bioreactors (250 mL).
Production Fed batch bioreactor run is executed at Ambr®250 bioreactor using process parameters as mentioned below.
The standard fed-batch culture process involved cell culturing for 12 days and it is harvested depending upon the culture cell viability.
(§2) When the control process is spiked with antioxidant MitoTempo (total 25 nM added throughout the culturing period) 5 nM each on day 3, 5, 7, 9, 11. It is observed that the harvested protein titer is improved when analysed by Protein-A HPLC method. It is also observed that overall oxidation of the product is decreased when analysed by LC-MS method. The overall peak viable cell density of the culture is also found to have increased.

[2] = system: host cells producing fusion protein (CTLA4Ig); assay: Fed-batch bioreactor (Ambr250) cell culture for fusion protein (CTLA4Ig) production, control process spiked with Mito-TEMPO; format: cell-based
Experimental: as §1, with “was” for “is”, “were” for “are”
Production Fed batch bioreactor run was executed at Ambr®250 bioreactor using process parameters as mentioned below.
The standard fed-batch culture process involved cell culturing for 12 days and was harvested depending upon the culture cell viability.
as §2, with “was” for “is”, “Mito Tempo” for “MitoTempo”, “improved by 28%” for “improved”, “decreased by 18%” for “decreased”, “increased by 11%.” for “increased.”

[3] = CTLA4Ig culture, total 25 nM, 5 nM each on day 3, 5, 7, 9, 11
[4] = CTLA4Ig fed-batch culture, 12 days, 5 nM each on Day 3, 5, 7, 9, 11 (total 25 nM)

Q: For CC1(C)CC(NC(=O)C[P+](c2ccccc2)(c2ccccc2)c2ccccc2)CC(C)(C)N1[O] [MitoTempo, Mito-TEMPO], which “harvested protein titer (Protein-A HPLC) versus control process” value [1] is on record?
A: improved

Q: What about the “overall oxidation of the product (LC-MS) versus control process” value [1] of the same molecule?
A: decreased

Q: And the “overall peak viable cell density of the culture versus control process” value [1]?
A: increased

Q: What about the “harvested protein titer improved (Protein-A HPLC) versus control process” value [2, 3] of the same molecule?
A: 28%

Q: And the “overall oxidation of the product decreased (LC-MS) versus control process” value [2, 3]?
A: 18%

Q: What about the “overall peak viable cell density increased versus control process” value [2, 3] of the same molecule?
A: 11%

Q: And the “Harvest Oxidation (%) by LC-MS” value [2, 4]?
A: 12.2%

Q: And the “Harvest Titer by Protein-A HPLC” value [2, 4]?
A: 2.7 g/L

Q: What about the “Peak cell density by Automated cell counter” value [2, 4] of the same molecule?
A: 18.8 ×10^6 cells/mL
